# Reference: patent publication US20230348538A1, “METHOD FOR TREATMENT OF DRY EYE COMPRISNG APPLYING P55PIK INHIBITOR” (Wuhan Yicheng Biological Technology Co., Ltd., priority 2020, published 2023)
# Legend:
# [1] = test system: rat model of dry eye induced by corneal epithelial injury; test: Rat model of dry eye induced by corneal epithelial injury: corneal epithelial injury score (sodium fluorescein, slit lamp); assay type: in vivo, SD rats
# Method: Grouping and administration: the eighteen rats were then randomly divided into three groups, with 6 laboratory rats in each group (male and female in equal numbers); Group 1 was the blank control group and received no treatment; Group 2 was the solvent control group and was treated with solvent eye drops that contained a solvent but no TAT-N16 peptide; Group 3 was the drug treatment group and was treated with eye drops comprising 0.1% TAT-N16 peptide; the eye drops were administered four times a day (1 drop/time) for 7 days; the corneal epithelial injury was evaluated on days 0, 4 and 7 after treatment.
# Detection method and scoring criteria: corneal staining was performed by injecting 1 drop pf sodium fluorescein into the conjunctival sac using the 5 mL sterile syringe with the […] needle; the corneal epithelium was observed under the blue light from the slit lamp after 5 minutes; and the scoring criteria were shown in Table 1.
# [2] = test system: dry eye model induced by 0.2% benzalkonium chloride solution; test: Benzalkonium chloride dry eye model: Schirmer's test I (phenol red thread); assay type: in vivo, C57BL/6 mice
# Method: The healthy male C57BL/6 mice were kept in a controlled environment with a temperature of (25±1)° C., a relative humidity of (25±5)%, and light-dark cycles (9 AM-9 PM) with simulated dawn and dusk. Forty mice (80 eyes) were treated with 5 μL of 0.2% benzalkonium chloride solution twice a day (8:00 AM and 6:00 PM) for 14 days to induce dry eye symptoms, while the remaining ten mice (20 eyes) received no treatment and served as a baseline control. Modeling was carried out on the 15th day; and the dry eye rat models were screened based on tear film break-up time (BUT), fluorescein sodium staining of corneal, and Schirmer's test I for tear secretion. To assess tear secretion, Schirmer's test I was performed on mice at 3 PM each day using the phenol red thread; general anesthesia was induced by intraperitoneal injection of pentobarbital (50 mg/kg body weight); the lower eyelid was grasped and gently pulled down; front end of the phenol red thread, folded 1 mm, was placed on the conjunctival surface near the outer canthus of the lower eyelid for 15 seconds; the length of the red-stained portion of the phenol red thread was measured and recorded; the eyelid was then closed after the Schirmer's test I to avoid excessive exposure; each eye was tested twice, and the average length of the red-stained portion of the phenol red thread was recorded as the final result. […] Group A, the drug treatment group, was treated with the eye drops comprising 0.1% TAT-[…] peptide, four times a day; Group B, the solvent control group, was treated with eye drops without TAT-[…] peptide, four times a day; and Group C, the blank control group, received no treatment; on days 1, 4, and 7 after treatment, BUT, Schirmer's test I, and fluorescein sodium staining were performed; on the 7th day, the paraffin sections of the conjunctival fornix was stained by PAS stain; and the number of PAS-positive goblet cells was counted.
# [3] = test system: rabbit model of dry eye (0.1% benzalkonium chloride); test: Rabbit model of dry eye: Schirmer's test; assay type: in vivo, New Zealand white rabbits
# Method: (§1) 1.2.1 Grouping: thirty New Zealand white rabbits were randomly divided into three groups, each comprising 10 rabbits: a blank control group, a solvent control group, and a drug treatment group.
# (§2) 1.2.2 Preparation of a rabbit model of dry eye: the right eye of each rabbit was used to establish a dry eye rabbit model by administering 0.1% benzalkonium chloride eye drops twice a day for 4 weeks. After 4 weeks, the dry eye rabbit model was evaluated, with the conjunctiva appearing dry, tear production being reduced, and Schirmer test values being less than 10 mm/5 min (compared to the control group, where all Schirmer test values were above 10 mm).
# (§3) 1.2.3 Drug preparation and usage: a liquid formulation of 0.1% TAT-N16 peptide eye drops were prepared by dissolving the peptide raw materials in physiological saline according to a weight ratio of 0.1%. The eye drops comprising 0.1% TAT-N16 peptide were administered 2 drops, 3 times a day for 7 days. The blank control group received no treatment, and the solvent control group received physiological saline eye drops 2 drops, 3 times a day for 7 days. The normal eye group served as a normal control group.
# 1.3 Specimen collection and animal testing were conducted by the same individual. […] The rabbit conjunctiva appearance, fluorescein staining, tear film break-up time were analyzed using a slit lamp before and on days 4 and 7 after treatment; additionally, the Schirmer's test and conjunctival impression cytology (CIC) were carried out.
# 1.3.1 Schirmer's test: the corneal surface was anesthetized with oxybuprocaine hydrochloride; a cotton swab was used to absorb the fluid around the eyelid; the Schirmer tear test strips were placed at the junction of the ⅓ posterior-middle of the lower conjunctival sac of the New Zealand white rabbit, with the remaining part hanging on the skin surface; the New Zealand white rabbit was then instructed to close its eyes, and after 5 minutes, the length of wet portion of the Schirmer tear test strips was measured.
# [4] = test system: rabbit model of dry eye (0.1% benzalkonium chloride); test: Rabbit model of dry eye: conjunctiva appearance and fluorescein staining; assay type: in vivo, New Zealand white rabbits
# Method: as §1, §2, §3
# 1.3 Specimen collection and animal testing were conducted by the same individual. The examination time, location, illumination brightness, and temperature were consistent throughout the experiment. The rabbit conjunctiva appearance, fluorescein staining, tear film break-up time were analyzed using a slit lamp before and on days 4 and 7 after treatment; additionally, the Schirmer's test and conjunctival impression cytology (CIC) were carried out.
# [5] = test system: rabbit model of dry eye (0.1% benzalkonium chloride); test: Rabbit model of dry eye: conjunctival impression cytology (CIC), goblet cell density; assay type: in vivo, New Zealand white rabbits; conditions: following medication; statistically significant; FIG. 5
# Method: as §1
# 1.2.2 Preparation of a rabbit model of dry eye: the right eye of each rabbit was used to establish a dry eye rabbit model by administering 0.1% benzalkonium chloride eye drops twice a day for 4 weeks. After 4 weeks, the dry eye rabbit model was evaluated, with the conjunctiva appearing dry, tear production being reduced, and Schirmer test values being less than 10 mm/5 min (compared to the control group, where all Schirmer test values were above 10 mm). […]
# 1.3.3 Conjunctival impression cytology (CIC) examination: CIC examination was performed on days 1, 4, and 7 after treatment; the nitrocellulose membranes were cut into two strips of 3.5 mm×3.5 mm each, soaked in distilled water for 4 h, and then dried; after surface anesthesia, the rough side of the two strips of the nitrocellulose membranes were placed on the nasal and temporal quadrants of the conjunctiva and pressed for 10 seconds to obtain surface epithelial cells; the nitrocellulose membranes were then fixed in 95% ethanol and stained with periodic acid-Schiff (PAS); the number of the goblet cells was counted under an optical microscope and graded according to the Nelson scoring system.
# [6] = before treatment (baseline), drug treatment group, 0.1% eye drops
substance,measurement,setting,value
"TAT-N16 peptide: cell-penetrating artificial peptide, sequence SEQ ID NO: 2, constructed by linking the peptide N16 to a TAT sequence; P55PIK inhibitor (YGRKKRRQRRRMMPYSTELIFYIEMDP)",Corneal epithelial injury score compared with blank control group or solvent control group,"[1]; 4 days of treatment, P>0.05",no statistically significant difference
same,Corneal epithelial injury score compared with blank control group or solvent control group,"[1]; 7 days of treatment, P<0.05",significantly lower
same,"Corneal epithelial injury scores (x ± s, n = 6)","[1]; after 4 days of treatment, 0.1% eye drops four times a day",3.08 ± 1.43
same,"Corneal epithelial injury scores (x ± s, n = 6)","[1]; after 7 days of treatment, 0.1% eye drops four times a day",0.84 ± 0.96
same,"Corneal epithelial injury scores (x ± s, n = 6)",[1]; [6],4.81 ± 1.61
same,Tear secretion volume compared with blank control group and solvent control group,[2]; 4th day of treatment,significantly higher
same,Schirmer's test I values (x ± s),"[2]; 4 days of treatment, 0.1% eye drops four times a day",5.14 ± 0.29 mm
same,Tear secretion volume compared with blank control group and solvent control group,"[2]; 7 days of continuous treatment, P<0.05",significantly higher
same,Schirmer's test I values (x ± s),"[2]; 7 days of treatment, 0.1% eye drops four times a day",5.88 ± 0.63 mm
same,Schirmer's test I values (x ± s),[2]; [6],4.19 ± 0.24 mm
same,Schirmer' test values,"[3]; 0 d / before treatment (baseline), drug treatment group",8.38±0.57 mm
same,Schirmer' test values,"[3]; 4 d, 0.1% eye drops 2 drops, 3 times a day",12.02±1.21 mm
same,Schirmer' test values,"[3]; 7 d, 0.1% eye drops 2 drops, 3 times a day",16.31±1.45 mm
same,Appearance of the rabbit conjunctiva,[4]; after 4 days of treatment,improved
same,Dot-like and patchy fluorescein staining on the conjunctiva,[4]; after 4 days of treatment,decreased
same,Appearance of the rabbit conjunctiva,[4]; after 7 days of treatment,appeared moist
same,Fluorescein staining on the conjunctiva,[4]; after 7 days of treatment,no staining was observed
same,Goblet cell density (CIC examination) compared to before medication,[5],gradual increase
